Source: article PMC8766756, “Insights on Cancer Cell Inhibition, Subcellular Activities, and Kinase Profile of Phenylacetamides Pending 1H-Imidazol-5-One Variants” (Frontiers in Pharmacology, 2022)
“And” between values parts separate entries of the source, which are not always exact repeats. Equal values may be shown once.

Experiments:
[1] = target: T1, EphA8 (P29322) (Homo sapiens, UniProt P29322); test: PamChip tyrosine kinase microarray; assay type: biochemical; conditions: 0.1 µM, HL60 lysate
T1 construct: purchased PamGene (PamChip PTK array, Upstream Kinase Analysis)
T1 sequence (P29322 28-1005): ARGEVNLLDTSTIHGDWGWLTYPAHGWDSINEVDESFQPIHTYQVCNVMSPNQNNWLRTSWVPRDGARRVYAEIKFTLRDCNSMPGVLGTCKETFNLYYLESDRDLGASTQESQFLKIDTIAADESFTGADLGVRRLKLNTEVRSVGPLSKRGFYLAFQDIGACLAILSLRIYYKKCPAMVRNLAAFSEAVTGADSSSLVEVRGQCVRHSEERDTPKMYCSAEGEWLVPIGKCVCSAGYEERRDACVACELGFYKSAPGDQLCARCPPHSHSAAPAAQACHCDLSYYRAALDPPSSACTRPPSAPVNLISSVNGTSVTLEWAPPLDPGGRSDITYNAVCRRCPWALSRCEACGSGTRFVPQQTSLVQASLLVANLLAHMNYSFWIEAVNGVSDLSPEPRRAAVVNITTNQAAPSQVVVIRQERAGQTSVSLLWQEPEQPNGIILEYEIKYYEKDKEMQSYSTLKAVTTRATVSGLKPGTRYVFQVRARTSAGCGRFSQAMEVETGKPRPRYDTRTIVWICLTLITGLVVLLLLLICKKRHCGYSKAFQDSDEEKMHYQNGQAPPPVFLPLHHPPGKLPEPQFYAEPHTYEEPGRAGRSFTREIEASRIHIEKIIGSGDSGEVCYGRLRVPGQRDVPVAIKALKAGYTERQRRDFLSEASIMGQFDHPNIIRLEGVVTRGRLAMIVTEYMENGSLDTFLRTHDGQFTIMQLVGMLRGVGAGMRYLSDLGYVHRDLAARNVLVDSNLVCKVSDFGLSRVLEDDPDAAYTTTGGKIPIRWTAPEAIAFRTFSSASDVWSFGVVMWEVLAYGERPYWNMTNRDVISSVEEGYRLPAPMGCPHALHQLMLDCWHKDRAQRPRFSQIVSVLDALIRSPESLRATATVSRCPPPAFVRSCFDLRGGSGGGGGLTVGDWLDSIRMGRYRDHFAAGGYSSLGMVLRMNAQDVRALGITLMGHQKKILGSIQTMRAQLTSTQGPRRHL
Method in brief: (§1)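 HL60 (AML) cell lysate was spiked with compound at 0.001, 0.01, 0.1, 1, 10 and 50 µM, or 2% v/v DMSO as control, then profiled in technical replicates on a tyrosine kinase peptide array of 196 phosphosites. Kinase activity was inferred from peptide-set changes using an upstream kinase tool.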

[2] = target: T2, FLT3 (P36888) (Homo sapiens, UniProt P36888); test: PamChip tyrosine kinase microarray; assay type: biochemical; conditions: 0.1 µM, HL60 lysate
T2 construct: purchased PamGene (PamChip PTK array, Upstream Kinase Analysis)
T2 sequence (P36888 27-993): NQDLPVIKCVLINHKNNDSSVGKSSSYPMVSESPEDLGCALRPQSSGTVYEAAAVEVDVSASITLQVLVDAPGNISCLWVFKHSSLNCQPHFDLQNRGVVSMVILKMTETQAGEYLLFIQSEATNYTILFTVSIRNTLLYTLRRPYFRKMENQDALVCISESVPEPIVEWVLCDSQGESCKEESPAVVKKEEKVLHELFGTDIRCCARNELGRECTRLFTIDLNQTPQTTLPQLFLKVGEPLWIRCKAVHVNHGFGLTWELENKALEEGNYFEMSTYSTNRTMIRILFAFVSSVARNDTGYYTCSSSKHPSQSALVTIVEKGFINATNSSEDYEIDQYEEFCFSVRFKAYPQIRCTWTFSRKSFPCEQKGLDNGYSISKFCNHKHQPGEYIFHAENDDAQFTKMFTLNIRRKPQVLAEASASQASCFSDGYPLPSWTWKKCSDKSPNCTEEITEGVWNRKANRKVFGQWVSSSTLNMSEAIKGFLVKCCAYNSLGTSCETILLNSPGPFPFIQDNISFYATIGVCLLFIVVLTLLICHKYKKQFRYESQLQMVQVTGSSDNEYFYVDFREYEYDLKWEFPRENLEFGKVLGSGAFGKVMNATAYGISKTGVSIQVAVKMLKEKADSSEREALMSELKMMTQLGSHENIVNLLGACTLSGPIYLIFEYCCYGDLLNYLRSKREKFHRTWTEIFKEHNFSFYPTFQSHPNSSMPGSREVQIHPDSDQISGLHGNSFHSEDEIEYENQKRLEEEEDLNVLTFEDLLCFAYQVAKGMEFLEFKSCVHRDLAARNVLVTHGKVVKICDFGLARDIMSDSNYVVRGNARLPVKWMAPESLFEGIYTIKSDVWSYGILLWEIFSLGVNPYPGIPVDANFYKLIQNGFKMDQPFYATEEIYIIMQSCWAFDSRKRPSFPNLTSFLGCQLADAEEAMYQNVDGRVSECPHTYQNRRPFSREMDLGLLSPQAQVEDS
Method in brief: as §1

COc1ccc(/C=C2\N=C(C)N(c3ccc(CC(=O)NCc4ccccc4)cc3)C2=O)cc1 [Compound 4c, (Z)-N-Benzyl-2-(4-(4-(4-methoxybenzylidene)-2-methyl-5-oxo-4,5-dihydro-1H-imidazol-1-yl)phenyl)acetamide]
Mean Final score (Kinase score) [1]: 2.201
Mean Kinase Statistic [1]: -0.925
Mean Significance Score [1]: 1.989
Mean Specificity Score [1]: 0.1251
Mean Significance Score [2]: 2.042
Mean Specificity Score [2]: 1.043
Mean Final score (Kinase score) ([2]; listed as KIM-161): 3.19 and 3.193
